Consider five compounds from patent US20250382344A1, “Soluble GLP1/GIP/NPY2 Receptor Triple Agonists” (Boehringer Ingelheim International GmH, priority 2024, published 2025).

Series [1] is described as follows: Solubility in 0.1 M phosphate buffer at pH 7. Type of series: physicochemical. Particulars: 0.1 M phosphate buffer at pH 7, 10 mg/mL final peptide concentration, shaking 2 hours at room temperature, peptides as TFA-salts, measured sample pH 6.5-7.0.
In another series the target is T1, hGLP1R (Homo sapiens, UniProt P43220).
T1 construct: expressed in transfected cells; host or cells: HEK-293 CRE-luciferase reporter cells
In words: hGLP1R CreLuc assay in 0.5% and 100% plasma (HEK-293 CRE-luciferase reporter cells). The note with it: HEK-293 reporter cells. Type of series: cell-based. (A reporter such as luciferase makes a cellular process visible.)

Another series addresses T2, hGIPR (Homo sapiens, UniProt P48546).
T2 construct: expressed in transfected cells; host or cells: CHO CRE-luciferase reporter cells
T2 sequence (P48546 22-466): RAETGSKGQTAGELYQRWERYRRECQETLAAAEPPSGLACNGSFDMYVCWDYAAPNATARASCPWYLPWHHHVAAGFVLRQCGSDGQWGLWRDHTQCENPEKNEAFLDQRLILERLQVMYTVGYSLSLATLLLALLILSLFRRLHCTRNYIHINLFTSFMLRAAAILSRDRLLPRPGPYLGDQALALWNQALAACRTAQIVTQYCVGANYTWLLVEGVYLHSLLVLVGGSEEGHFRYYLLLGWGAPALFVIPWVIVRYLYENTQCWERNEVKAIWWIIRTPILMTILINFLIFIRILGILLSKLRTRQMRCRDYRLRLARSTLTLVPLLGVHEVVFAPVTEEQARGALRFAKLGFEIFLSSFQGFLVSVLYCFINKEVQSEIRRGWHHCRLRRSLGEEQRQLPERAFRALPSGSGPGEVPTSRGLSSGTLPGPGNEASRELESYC
In words: hGIPR CreLuc assay in 0.5% and 100% plasma (CHO CRE-luciferase reporter cells). Type of series: cell-based.

Setting [2] is: 0.5% human plasma, read-out: hGLP1R 0.5% hP.
Setting [3] is: 0.5% human plasma, read-out: hGIPR 0.5% hP.
Where [4] appears, read: 100% human plasma, read-out: hGLP1R 100% hP.
The mark [5] stands for this setting: 100% human plasma, read-out: hGIPR 100% hP.

Where two headings read alike, the source gives them in different places. *1 amine or outer side, *2 acyl side, *3 side chain or, on linkers, in order; H or OH if unused. Where a SMILES comes first, the peptide text is derived from it. Side-chain parts run from the residue outwards. [ ]: non-standard residue; d: D form. The star is where a group is joined. C18 diacid = O=C(O)CCCCCCCCCCCCCCCCC(=O)*; γGlu = O=C(O)[C@H](CCC(=O)[*:2])N[*:1]; εLys = N[C@@H](CCCCN[*:1])C(=O)[*:2]; Aib = CC(C)(N)C(=O)O

A word on the solubility: it is how much of the substance goes into solution per volume.

T1 sequence (P43220 24-463): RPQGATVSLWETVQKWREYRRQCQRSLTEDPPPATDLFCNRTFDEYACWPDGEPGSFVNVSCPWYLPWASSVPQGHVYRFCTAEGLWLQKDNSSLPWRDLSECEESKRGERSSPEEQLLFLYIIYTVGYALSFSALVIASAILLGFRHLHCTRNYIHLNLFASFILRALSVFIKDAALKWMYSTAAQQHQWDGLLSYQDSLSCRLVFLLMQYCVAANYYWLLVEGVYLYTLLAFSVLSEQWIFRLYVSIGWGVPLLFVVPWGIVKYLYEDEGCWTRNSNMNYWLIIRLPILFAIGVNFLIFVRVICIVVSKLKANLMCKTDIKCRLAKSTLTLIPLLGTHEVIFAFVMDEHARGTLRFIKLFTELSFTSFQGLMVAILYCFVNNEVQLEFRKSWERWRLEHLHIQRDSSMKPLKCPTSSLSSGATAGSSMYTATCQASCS

Take `CC[C@H](C)[C@H](NC(=O)[C@H](CC(C)C)NC(=O)[C@H](Cc1c[nH]cn1)NC(=O)[C@H](CCCNC(=N)N)NC(=O)[C@@H](NC(=O)[C@H](Cc1ccccc1)NC(=O)[C@H](C)NC(=O)C(C)(C)NC(=O)[C@H](CCC(N)=O)NC(=O)[C@H](C)NC(=O)[C@H](CCC(N)=O)NC(=O)[C@H](C)NC(=O)[C@H](CC(=O)O)NC(=O)[C@H](CC(C)C)NC(=O)C(C)(C)NC(=O)[C@@H](NC(=O)[C@H](CO)NC(=O)[C@H](Cc1ccc(O)cc1)NC(=O)[C@H](CC(=O)O)NC(=O)[C@H](CO)NC(=O)[C@@H](NC(=O)[C@H](Cc1ccccc1)NC(=O)[C@@H](NC(=O)CNC(=O)[C@H](CCC(=O)O)NC(=O)C(C)(C)NC(=O)[C@@H](N)Cc1ccc(O)cc1)[C@@H](C)O)[C@@H](C)O)[C@@H](C)CC)C(C)C)C(=O)N[C@@H](CC(N)=O)C(=O)N[C@@H](CCCCNC(=O)[C@@H](N)CCCCNC(=O)CC[C@H](NC(=O)CC[C@H](NC(=O)CC[C@H](NC(=O)CC[C@H](NC(=O)CC[C@H](NC(=O)CC[C@H](NC(=O)CCCCCCCCCCCCCCCCC(=O)O)C(=O)O)C(=O)O)C(=O)O)C(=O)O)C(=O)O)C(=O)O)C(=O)NC(C)(C)C(=O)N[C@H](C(=O)N[C@@H](CCCNC(=N)N)C(=O)N[C@@H](CCC(N)=O)C(=O)N[C@@H](CCCNC(=N)N)C(=O)N[C@@H](Cc1ccc(O)cc1)C(N)=O)[C@@H](C)O` [Compound 55, Y-Aib-E-G-T-F-T-S-D-Y-S-I-Aib-L-D-A-Q-A-Q-Aib-A-F-V-R-H-L-I-N-K(1,3)-Aib-T-R-Q-R-Y-NH2.C18DA-gGlu-gGlu-gGlu-gGlu-gGlu-gGlu-eLys(1,2)]: the solubility at 2 h in series [1] stood at 8800 µg/mL. Besides, the EC50 on hGLP1R (setting [2]) and on hGIPR (setting [3]) was 0.4 nM in each case.
For the compound `CC[C@H](C)[C@H](NC(=O)[C@H](CC(C)C)NC(=O)[C@H](Cc1c[nH]cn1)NC(=O)[C@H](CCCNC(=N)N)NC(=O)[C@@H](NC(=O)[C@H](Cc1ccccc1)NC(=O)[C@H](CCC(=O)O)NC(=O)C(C)(C)NC(=O)[C@H](CCC(N)=O)NC(=O)[C@H](C)NC(=O)[C@H](CCC(N)=O)NC(=O)[C@H](CCCCN)NC(=O)[C@H](CCC(=O)O)NC(=O)[C@H](CC(C)C)NC(=O)C(C)(C)NC(=O)[C@@H](NC(=O)[C@H](CO)NC(=O)[C@H](Cc1ccc(O)cc1)NC(=O)[C@H](CC(=O)O)NC(=O)[C@H](CO)NC(=O)[C@@H](NC(=O)[C@H](Cc1ccccc1)NC(=O)[C@@H](NC(=O)CNC(=O)[C@H](CCC(=O)O)NC(=O)C(C)(C)NC(=O)[C@@H](N)Cc1ccc(O)cc1)[C@@H](C)O)[C@@H](C)O)[C@@H](C)CC)C(C)C)C(=O)N[C@@H](CC(N)=O)C(=O)N[C@@H](CCCCNC(=O)CC[C@H](NC(=O)CC[C@H](NC(=O)CC[C@H](NC(=O)CC[C@H](NC(=O)CC[C@H](NC(=O)CC[C@H](NC(=O)CCCCCCCCCCCCCCCCC(=O)O)C(=O)O)C(=O)O)C(=O)O)C(=O)O)C(=O)O)C(=O)O)C(=O)NC(C)(C)C(=O)N[C@H](C(=O)N[C@@H](CCCNC(=N)N)C(=O)N[C@@H](CCC(N)=O)C(=O)N[C@@H](CCCNC(=N)N)C(=O)N[C@@H](Cc1ccc(O)cc1)C(N)=O)[C@@H](C)O` [Compound 56, Y-Aib-E-G-T-F-T-S-D-Y-S-I-Aib-L-E-K-Q-A-Q-Aib-E-F-V-R-H-L-I-N-K(1,3)-Aib-T-R-Q-R-Y-NH2.C18DA-gGlu-gGlu-gGlu-gGlu-gGlu-gGlu(1,2)], the solubility in series [1] (read-out: Solubility) came to 4400 µg/mL. Further, the EC50 turned out to be 0.7 nM on hGLP1R (setting [2]), 7.1 nM on hGLP1R (setting [4]), 0.4 nM at hGIPR (setting [3]) and 19.3 nM on hGIPR (setting [5]).
Regarding `CC[C@H](C)[C@H](NC(=O)[C@H](CC(C)C)NC(=O)[C@H](Cc1c[nH]cn1)NC(=O)[C@H](CCCNC(=N)N)NC(=O)[C@@H](NC(=O)[C@H](Cc1ccccc1)NC(=O)[C@H](C)NC(=O)C(C)(C)NC(=O)[C@H](CCC(N)=O)NC(=O)[C@H](C)NC(=O)[C@H](CCC(N)=O)NC(=O)[C@H](CCCCN)NC(=O)[C@H](CC(=O)O)NC(=O)[C@H](CC(C)C)NC(=O)[C@](C)(CC(C)C)NC(=O)[C@@H](NC(=O)[C@H](CO)NC(=O)[C@H](Cc1ccc(O)cc1)NC(=O)[C@H](CC(=O)O)NC(=O)[C@H](CO)NC(=O)[C@@H](NC(=O)[C@H](Cc1ccccc1)NC(=O)[C@@H](NC(=O)CNC(=O)[C@H](CCC(=O)O)NC(=O)C(C)(C)NC(=O)[C@@H](N)Cc1ccc(O)cc1)[C@@H](C)O)[C@@H](C)O)[C@@H](C)CC)C(C)C)C(=O)N[C@@H](CC(N)=O)C(=O)N[C@@H](CCCCNC(=O)[C@@H](N)CCCCNC(=O)CC[C@H](NC(=O)CC[C@H](NC(=O)CC[C@H](NC(=O)CC[C@H](NC(=O)CC[C@H](NC(=O)CC[C@H](NC(=O)CCCCCCCCCCCCCCCCC(=O)O)C(=O)O)C(=O)O)C(=O)O)C(=O)O)C(=O)O)C(=O)O)C(=O)NC(C)(C)C(=O)N[C@H](C(=O)N[C@@H](CCCNC(=N)N)C(=O)N[C@@H](CCC(N)=O)C(=O)N[C@@H](CCCNC(=N)N)C(=O)N[C@@H](Cc1ccc(O)cc1)C(N)=O)[C@@H](C)O` [Compound 67, Y-Aib-E-G-T-F-T-S-D-Y-S-I-aMeL-L-D-K-Q-A-Q-Aib-A-F-V-R-H-L-I-N-K(1,3)-Aib-T-R-Q-R-Y-NH2.C18DA-gGlu-gGlu-gGlu-gGlu-gGlu-gGlu-eLys(1,2)], in series [1], the solubility at 2 h is 8800 µg/mL. Besides, the EC50 at hGLP1R (setting [2]) worked out at 0.1 nM; on hGLP1R (setting [4]) it was 0.6 nM; on hGIPR (setting [3]) it was 0.1 nM; at hGIPR (setting [5]), 1.7 nM.
With `CC[C@H](C)[C@H](NC(=O)[C@H](CC(C)C)NC(=O)[C@H](Cc1c[nH]cn1)NC(=O)[C@H](CCCNC(=N)N)NC(=O)[C@@H](NC(=O)[C@H](Cc1ccccc1)NC(=O)[C@H](C)NC(=O)C(C)(C)NC(=O)[C@H](CCC(N)=O)NC(=O)[C@H](C)NC(=O)[C@H](CCC(N)=O)NC(=O)[C@H](CCCCN)NC(=O)[C@H](CCC(=O)O)NC(=O)[C@H](CC(C)C)NC(=O)C(C)(C)NC(=O)[C@@H](NC(=O)[C@H](CO)NC(=O)[C@H](Cc1ccc(O)cc1)NC(=O)[C@H](CC(=O)O)NC(=O)[C@H](CO)NC(=O)[C@@H](NC(=O)[C@H](Cc1ccccc1)NC(=O)[C@@H](NC(=O)CNC(=O)[C@H](CCC(=O)O)NC(=O)C(C)(C)NC(=O)[C@@H](N)Cc1ccc(O)cc1)[C@@H](C)O)[C@@H](C)O)[C@@H](C)CC)C(C)C)C(=O)N[C@@H](C)C(=O)N[C@@H](CCCCNC(=O)[C@@H](N)CCCCNC(=O)CC[C@H](NC(=O)CC[C@H](NC(=O)CC[C@H](NC(=O)CC[C@H](NC(=O)CC[C@H](NC(=O)CC[C@H](NC(=O)CCCCCCCCCCCCCCCCC(=O)O)C(=O)O)C(=O)O)C(=O)O)C(=O)O)C(=O)O)C(=O)O)C(=O)NC(C)(C)C(=O)N[C@H](C(=O)N[C@@H](CCCNC(=N)N)C(=O)N[C@@H](CCC(N)=O)C(=O)N[C@@H](CCCNC(=N)N)C(=O)N[C@@H](Cc1ccc(O)cc1)C(N)=O)[C@@H](C)O` [Compound 68, Y-Aib-E-G-T-F-T-S-D-Y-S-I-Aib-L-E-K-Q-A-Q-Aib-A-F-V-R-H-L-I-A-K(1,3)-Aib-T-R-Q-R-Y-NH2.C18DA-gGlu-gGlu-gGlu-gGlu-gGlu-gGlu-eLys(1,2)] (H-Y[Aib]EGTFTSDYSI[Aib]LEKQAQ[Aib]AFVRHLIAK([εLys-γGlu-γGlu-γGlu-γGlu-γGlu-γGlu-C18 diacid])[Aib]TRQRY-NH2; N-terminus assumed), the solubility at 2 h in series [1] was determined as 4800 µg/mL. Further, the EC50 on hGLP1R (setting [2]) turned out to be 0.6 nM; on hGIPR (setting [3]) it was 0.2 nM.
Take `CC[C@H](C)[C@H](NC(=O)[C@H](CC(C)C)NC(=O)[C@H](Cc1c[nH]cn1)NC(=O)[C@H](CCCNC(=N)N)NC(=O)[C@@H](NC(=O)[C@H](Cc1ccccc1)NC(=O)[C@H](C)NC(=O)C(C)(C)NC(=O)[C@H](CCC(N)=O)NC(=O)[C@H](C)NC(=O)[C@H](CCC(N)=O)NC(=O)[C@H](CCC(=O)O)NC(=O)[C@H](CCC(=O)O)NC(=O)[C@H](CC(C)C)NC(=O)[C@](C)(CC(C)C)NC(=O)[C@@H](NC(=O)[C@H](CO)NC(=O)[C@H](Cc1ccc(O)cc1)NC(=O)[C@H](CC(=O)O)NC(=O)[C@H](CO)NC(=O)[C@@H](NC(=O)[C@H](Cc1ccccc1)NC(=O)[C@@H](NC(=O)CNC(=O)[C@H](CCC(=O)O)NC(=O)C(C)(C)NC(=O)[C@@H](N)Cc1ccc(O)cc1)[C@@H](C)O)[C@@H](C)O)[C@@H](C)CC)C(C)C)C(=O)N[C@@H](CC(N)=O)C(=O)N[C@@H](CCCCNC(=O)[C@@H](N)CCCCNC(=O)CC[C@H](NC(=O)CC[C@H](NC(=O)CC[C@H](NC(=O)CC[C@H](NC(=O)CC[C@H](NC(=O)CC[C@H](NC(=O)CCCCCCCCCCCCCCCCCCC(=O)O)C(=O)O)C(=O)O)C(=O)O)C(=O)O)C(=O)O)C(=O)O)C(=O)NC(C)(C)C(=O)N[C@H](C(=O)N[C@@H](CCCNC(=N)N)C(=O)N[C@@H](CCC(N)=O)C(=O)N[C@@H](CCCNC(=N)N)C(=O)N[C@@H](Cc1ccc(O)cc1)C(N)=O)[C@@H](C)O` [Compound 89, Y-Aib-E-G-T-F-T-S-D-Y-S-I-aMeL-L-E-E-Q-A-Q-Aib-A-F-V-R-H-L-I-N-K(1,3)-Aib-T-R-Q-R-Y-NH2.C20DA-gGlu-gGlu-gGlu-gGlu-gGlu-gGlu-eLys(1,2)]: the solubility at 2 h in series [1] amounted to 8800 µg/mL. Moreover, the EC50 on hGLP1R (setting [2]) stood at 0.2 nM; on hGLP1R (setting [4]), 1.7 nM; on hGIPR (setting [3]), 0.1 nM; at hGIPR (setting [5]), 0.9 nM.
